Holding throughout (assay): Experiment B1 glasshouse herbicide test, pre- and post-emergence, percentage damage
What all share (type): in vivo
Conditions in all cases: 1000 g/h, evaluated after 13 days

For experiment [1], the system named is Amaranthus retoflexus (AMARE). The procedure: (§1) Seeds of a variety of test species are sown in standard soil in pots (Lolium perenne (LOLPE), Solanum nigrum (SOLNI), Amaranthus retoflexus (AMARE), Setaria faberi (SETFA), Echinochloa crus-galli (ECHCG), Ipomoea hederacea (IPOHE)). After cultivation for one day (pre-emergence) or after 8 days cultivation (post-emergence) under controlled conditions in a glasshouse (at 24/16° C., day/night; 14 hours light; 65% humidity), the plants are sprayed with an aqueous spray solution derived from the formulation of the technical active ingredient in acetone/water (50:50) solution containing 0.5% Tween 20 (polyoxyethelyene sorbitan monolaurate, CAS RN 9005-64-5). […] The test plants are then grown in a glasshouse under controlled conditions in a glasshouse (at 24/16° C., day/night; 14 hours light; 65% humidity) and watered twice daily. After 13 days for pre and post-emergence, the test is evaluated for the percentage damage caused to the plant. The biological activities are shown in the following table on a five point scale (5=80-100%; 4=60-79%; 3=40-59%; 2=20-39%; 1=0-19%).

Experiment [2] deals with Echinochloa crus-galli (ECHCG). The procedure:
as §1

Experiment [3] concerns Ipomoea hederacea (IPOHE). The procedure:
as §1

Experiment [4] concerns Lolium perenne (LOLPE). The procedure: as §1
In experiment [5] the test system is Setaria faberi (SETFA). The procedure:
as §1

The subject of experiment [6] is Solanum nigrum (SOLNI). The procedure:
as §1

The mark [7] stands for this setting: POST Application (post-emergence, after 8 days cultivation).
[8] abbreviates: PRE Application (pre-emergence, after cultivation for one day).

Molecules are shown by their SMILES.

`Cc1c(C(=O)Nc2nnnn2C)cc2cccnc2c1-c1ccc(S(C)(=O)=O)cc1` [Compound 1.031, 7-methyl-8-(4-methylsulfonylphenyl)-N-(1-methyltetrazol-5-yl)quinoline-6-carboxamide]: the “percentage damage caused to the plant, five point scale, AMARE” value (“percentage damage caused … AMARE” for short) in experiment [1] (setting [7]) and in experiment [1] (setting [8]) was 5 (5=80-100%) each time. For the same compound, the “percentage damage caused to the plant, five point scale, ECHCG” value (“percentage damage caused … ECHCG” for short) in experiment [2] (setting [7]) and in experiment [2] (setting [8]) was 5 (5=80-100%) throughout. The “percentage damage caused to the plant, five point scale, IPOHE” value (“percentage damage caused … IPOHE” for short) in experiment [3] (setting [7]) and in experiment [3] (setting [8]) was 5 (5=80-100%) throughout. The “percentage damage caused to the plant, five point scale, LOLPE” value (“percentage damage caused … LOLPE” for short) in experiment [4] (setting [7]) and in experiment [4] (setting [8]) was 5 (5=80-100%) throughout. Besides, the “percentage damage caused to the plant, five point scale, SETFA” value (“percentage damage caused … SETFA” for short) in experiment [5] (setting [7]) and in experiment [5] (setting [8]) was 5 (5=80-100%) in each case. The “percentage damage caused to the plant, five point scale, SOLNI” value (“percentage damage caused … SOLNI” for short) in experiment [6] (setting [7]) and in experiment [6] (setting [8]) was 5 (5=80-100%) in each case.

With `CSc1c(C(=O)Nc2nnnn2C)cc2cccnc2c1-c1ccccc1` [Compound 1.032, 7-methylsulfanyl-N-(1-methyltetrazol-5-yl)-8-phenyl-quinoline-6-carboxamide], the “percentage damage caused … AMARE” value in experiment [1] (setting [7]) and in experiment [1] (setting [8]) was 5 (5=80-100%) in each case. The “percentage damage caused … ECHCG” value in experiment [2] (setting [7]) and in experiment [2] (setting [8]) was 5 (5=80-100%) in each case. The “percentage damage caused … IPOHE” value in experiment [3] (setting [7]) and in experiment [3] (setting [8]) was 5 (5=80-100%) throughout. Moreover, the “percentage damage caused … LOLPE” value in experiment [4] (setting [7]) and in experiment [4] (setting [8]) was 5 (5=80-100%) each time. In addition, the “percentage damage caused … SETFA” value in experiment [5] (setting [7]) and in experiment [5] (setting [8]) was 5 (5=80-100%) throughout. The “percentage damage caused … SOLNI” value in experiment [6] (setting [7]) and in experiment [6] (setting [8]) was 5 (5=80-100%) in each case.

With `O=C(Nc1nnnn1-c1ccccc1)c1cc2cccnc2c(-c2ccccc2)c1C(F)(F)F` [Compound 1.033], the “percentage damage caused … AMARE” value in experiment [1] (setting [7]) and in experiment [1] (setting [8]) was 5 (5=80-100%) throughout. In addition, the entries for the “percentage damage caused … ECHCG” value in experiment [2] (setting [7]) and in experiment [2] (setting [8]) were 2 (2=20-39%) and 1 (1=0-19%), respectively. Also, the results for the “percentage damage caused … IPOHE” value in experiment [3] (setting [7]) and in experiment [3] (setting [8]) were 5 (5=80-100%) and 3 (3=40-59%), respectively. In addition, the “percentage damage caused … LOLPE” value in experiment [4] (setting [7]) and in experiment [4] (setting [8]) was 1 (1=0-19%) throughout. The entries for the “percentage damage caused … SETFA” value in experiment [5] (setting [7]) and in experiment [5] (setting [8]) were 2 (2=20-39%) and 1 (1=0-19%), respectively. The “percentage damage caused … SOLNI” value in experiment [6] (setting [7]) is on record as 5 (5=80-100%); in experiment [6] (setting [8]) it was 4 (4=60-79%).

Take `COc1ccc(-c2c(C)c(C(=O)Nc3nnnn3C)cc3cccnc23)cc1` [Compound 1.034]: the “percentage damage caused … AMARE” value in experiment [1] (setting [7]) and in experiment [1] (setting [8]) was 5 (5=80-100%) in each case. Also, the “percentage damage caused … ECHCG” value in experiment [2] (setting [7]) and in experiment [2] (setting [8]) was 5 (5=80-100%) throughout. In addition, the “percentage damage caused … IPOHE” value in experiment [3] (setting [7]) and in experiment [3] (setting [8]) was 5 (5=80-100%) in each case. Moreover, the entries for the “percentage damage caused … LOLPE” value in experiment [4] (setting [7]) and in experiment [4] (setting [8]) were 4 (4=60-79%) and 5 (5=80-100%), respectively. For the same compound, the “percentage damage caused … SETFA” value in experiment [5] (setting [7]) and in experiment [5] (setting [8]) was 5 (5=80-100%) throughout. Further, the “percentage damage caused … SOLNI” value in experiment [6] (setting [7]) and in experiment [6] (setting [8]) was 5 (5=80-100%) throughout.

Regarding `Cc1c(C(=O)Nc2nnnn2C)cc2cccnc2c1-c1ccc(F)cc1` [Compound 1.035], the “percentage damage caused … AMARE” value in experiment [1] (setting [7]) and in experiment [1] (setting [8]) was 5 (5=80-100%) throughout. The “percentage damage caused … ECHCG” value in experiment [2] (setting [7]) and in experiment [2] (setting [8]) was 5 (5=80-100%) throughout. The “percentage damage caused … IPOHE” value in experiment [3] (setting [7]) and in experiment [3] (setting [8]) was 5 (5=80-100%) in each case. The “percentage damage caused … LOLPE” value in experiment [4] (setting [7]) is 4 (4=60-79%); in experiment [4] (setting [8]), 5 (5=80-100%). Further, the “percentage damage caused … SETFA” value in experiment [5] (setting [7]) and in experiment [5] (setting [8]) was 5 (5=80-100%) throughout. The “percentage damage caused … SOLNI” value in experiment [6] (setting [7]) and in experiment [6] (setting [8]) was 5 (5=80-100%) in each case.

Take `Cc1c(C(=O)Nc2nnnn2C)cc2cccnc2c1-c1ccc(Cl)cc1` [Compound 1.036]: the “percentage damage caused … AMARE” value in experiment [1] (setting [7]) and in experiment [1] (setting [8]) was 5 (5=80-100%) each time. The “percentage damage caused … ECHCG” value in experiment [2] (setting [7]) and in experiment [2] (setting [8]) was 5 (5=80-100%) throughout. Also, the “percentage damage caused … IPOHE” value in experiment [3] (setting [7]) and in experiment [3] (setting [8]) was 5 (5=80-100%) each time. For the same compound, the “percentage damage caused … LOLPE” value in experiment [4] (setting [7]) and in experiment [4] (setting [8]) was 4 (4=60-79%) in each case. The “percentage damage caused … SETFA” value in experiment [5] (setting [7]) and in experiment [5] (setting [8]) was 5 (5=80-100%) throughout. Also, the “percentage damage caused … SOLNI” value in experiment [6] (setting [7]) and in experiment [6] (setting [8]) was 5 (5=80-100%) each time.

In the case of `COc1ccc(-c2c(C)c(C(=O)Nc3nnnn3C)cc3ccc(C)nc23)cc1` [Compound 1.037], the “percentage damage caused … AMARE” value in experiment [1] (setting [7]) and in experiment [1] (setting [8]) was 5 (5=80-100%) throughout. For the same compound, the “percentage damage caused … ECHCG” value in experiment [2] (setting [7]) and in experiment [2] (setting [8]) was 5 (5=80-100%) throughout. Moreover, the “percentage damage caused … IPOHE” value was 5 (5=80-100%) in experiment [3] (setting [7]) and 4 (4=60-79%) in experiment [3] (setting [8]). For the same compound, the “percentage damage caused … LOLPE” value in experiment [4] (setting [7]) is recorded as 5 (5=80-100%); in experiment [4] (setting [8]), 3 (3=40-59%). Moreover, the “percentage damage caused … SETFA” value in experiment [5] (setting [7]) and in experiment [5] (setting [8]) was 5 (5=80-100%) in each case. Further, the “percentage damage caused … SOLNI” value in experiment [6] (setting [7]) and in experiment [6] (setting [8]) was 5 (5=80-100%) in each case.

The values are drawn from US9980486B2, “Herbicidal quinolines” (Syngenta Participations AG, priority 2014, dated 2018).
